Data on 19 molecules can be found in patent US11254663B2 (BRISTOL-MYERS SQUIBB COMPANY, priority 2019, dated 2022).

This test has as its target FXR (Homo sapiens (Human), UniProt Q96RI1). The test is described as follows: transient human FXR/Gal4-luciferase reporter assay. It counts as cell-based. How it is done: A Gal4-hFXR fusion construct reporter system was used as the primary assay to characterize compound activity. A construct including 5 copies of the Gal4 promoter response element upstream of a firefly luciferase reporter cDNA was stably expressed in HEK293 cells. This reporter cell line was maintained in Dulbecco's Modified Eagle's medium (DMEM; Gibco) supplemented with 1% penicillin-streptomycin (P/S) solution, 500 μg/mL Zeocin and 10% charcoal/dextran-treated fetal bovine serum (cs-FBS) at 37° C. in a humidified 5% CO2 atmosphere. Another plasmid was constructed in which the human cytomegalovirus promoter in the pcDNA3.1 vector directs the expression of the cDNA encoding a fusion protein comprised of the DNA binding domain from the Gal4 transcription factor fused to the ligand binding domain from human FXR.
The day prior to transfection, the reporter cells in culture are detached from the plate with trypsin and plated into a T75 flask at a sufficient density to achieve approximately 90% confluence the next morning. The transfection reagents are prepared by separately diluting 25 μg of the pcDNA3.1-Gal4-FXR plasmid into 1.87 mL of Opti-MEM (Thermo-Fisher), and 40 μL of Lipofectamine 2000 (Thermo-Fisher) into 1.87 mL of Opti-MEM, and then adding the diluted DNA solution into the diluted Lipofectamine 2000 solution and incubating at room temperature for 15-20 minutes. The mixture is further diluted with 10 mL of a solution comprised of DMEM, 10% cs-FBS, and 1% P/S immediately prior to transferring to the cells. The maintenance culture media is aspirated from the cells and the final transfection mixture is added before the cells are incubated overnight at 37° C. in a humidified 5% CO2 atmosphere. This protocol can be scaled up, and the transiently transfected cells can be cryopreserved in an assay-ready format.
For compound testing, 100 nL of the compounds (serial dilutions in DMSO) are dispensed with an Echo acoustic dispenser (Labcyte) into the wells of a Corning/Costar clear bottom 384-well white plate. The transfected cells are harvested, counted, and diluted such that 10-25,000 cells in 25 μL are plated into each well of the 384-well compound assay plate. The compound-treated cells are incubated overnight at 37° C. in a humidified 5% CO2 atmosphere. The next morning 25 μL of Steady-Glo (Promega) are added to each well of the plate, the mixture is incubated for 15 min. with shaking, and luminescence is measured on an Envision (Perkin Elmer) plate reader.
On the technique in general: A reporter such as luciferase makes a cellular process visible.

Setting [1] is: Gal4-hFXR fusion construct, HEK293 reporter cells, response relative to 8 μM GW-4064.

Like-named read-outs stand apart in the source and are kept apart here.

Sequence of FXR (Q96RI1 262-486): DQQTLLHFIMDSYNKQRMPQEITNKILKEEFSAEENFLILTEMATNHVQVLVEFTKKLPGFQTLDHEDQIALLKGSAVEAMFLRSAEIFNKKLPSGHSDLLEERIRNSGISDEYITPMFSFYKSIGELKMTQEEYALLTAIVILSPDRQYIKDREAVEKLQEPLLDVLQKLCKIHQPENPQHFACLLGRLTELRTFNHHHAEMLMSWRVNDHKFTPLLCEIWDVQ

For `CC(C)(O)c1ccc(-c2cccc(N(CC34CCC(c5noc(C(C)(C)F)n5)(CC3)CC4)C(=O)NCC3(S(C)(=O)=O)CC3)c2)cc1` [Example 642], the response was half-maximal at 294 nM (EC50). This lies in the sub-micromolar range.

With `N#Cc1cnc2ccc(-c3cccc(N(CC45CCC(c6nc(C7CC7)no6)(CC4)CC5)C(=O)C45CC(F)(C4)C5)c3)nn12` [Example 306, N-(3-(3-cyanoimidazo[1,2-b]pyridazin-6-yl)phenyl)-N-((4-(3-cyclopropyl-1,2,4-oxadiazol-5-yl)bicyclo[2.2.2]octan-1-yl)methyl)-3-fluorobicyclo[1.1.1]pentane-1-carboxamide], the response under setting [1] was half-maximal at 386 nM (EC50). This lies in the sub-micromolar range.

For `CC(C)(C#N)Oc1ccc(-c2cccc(N(CC34CCC(c5noc(C(C)(C)F)n5)(CC3)CC4)C(=O)N3CCC(C(C)(C)O)CC3)c2)cc1` [Example 651, N-(4′-((2-cyanopropan-2-yl)oxy)-[1,1′-biphenyl]-3-yl)-N-((4-(5-(2-fluoropropan-2-yl)-1,2,4-oxadiazol-3-yl)bicyclo[2.2.2]octan-1-yl)methyl)-4-(2-hydroxypropan-2-yl)piperidine-1-carboxamide], under setting [1], the EC50 – broadly, the midpoint of the concentration-response curve – stood at 273 nM. This EC50 and that of the molecule before are within 1.5-fold of each other.

Turning to `CC(C)S(=O)(=O)Nc1ccc(-c2cccc(N(CC34CCC(c5noc(C(C)(C)C)n5)(CC3)CC4)C(=O)C34CC(F)(C3)C4)c2)cc1` [Example 448, N-((4-(5-(tert-butyl)-1,2,4-oxadiazol-3-yl)bicyclo[2.2.2]octan-1-yl)methyl)-3-fluoro-N-(4′-((1-methylethyl)sulfonamido)-[1,1′-biphenyl]-3-yl)bicyclo[1.1.1]pentane-1-carboxamide], under setting [1], the EC50 was determined as 277 nM.

Consider `CC(C)(F)c1nc(C23CCC(CN(c4cccc(N5CC6(COC6)C5)c4)C(=O)[C@H]4C[C@](O)(C(F)(F)F)C4)(CC2)CC3)no1` [Example 592, (cis)-N-(3-(2-oxa-6-azaspiro[3.3]heptan-6-yl)phenyl)-N-((4-(5-(2-fluoropropan-2-yl)-1,2,4-oxadiazol-3-yl)bicyclo[2.2.2]octan-1-yl)methyl)-3-hydroxy-3-(trifluoromethyl)cyclobutane-1-carboxamide], for which the EC50 under setting [1] is 970 nM.

`Cc1nc2ccc(-c3cccc(N(CC45CCC(c6ccc(C(=O)N(C)C)cc6)(CC4)OC5)C(=O)C45CC(F)(C4)C5)c3)cc2s1` [Example 569, N-((1-(4-(dimethylcarbamoyl)phenyl)-2-oxabicyclo[2.2.2]octan-4-yl)methyl)-3-fluoro-N-(3-(2-methylbenzo[d]thiazol-6-yl)phenyl)bicyclo[1.1.1]pentane-1-carboxamide] showed an EC50 under setting [1] of 2220 nM.

Consider `CC(C)(O)c1ccc(-c2ccnc(N(CC34CCC(c5ccc(C(C)(F)F)cn5)(CC3)CC4)C(=O)OC(C)(C)C(F)(F)F)c2)cc1` [Example 605, 1,1,1-trifluoro-2-methylpropan-2-yl((4-(5-(1,1-difluoroethyl)pyridin-2-1)bicyclo[2.2.2]octan-1-yl)methyl)(4-(4-(2-hydroxypropan-2-yl)phenyl)pyridin-2-yl)carbamate], for which, under setting [1], the midpoint of the response, the EC50, lay at 52 nM.

On to `CC(C)(O)c1ccc(-c2cccc(N(CC34CCC(c5nc(C6CC6)no5)(CC3)CC4)C(=O)OC(C)(C)C(F)(F)F)c2)cc1` [Example 623, 1,1,1-trifluoro-2-methylpropan-2-yl((4-(3-cyclopropyl-1,2,4-oxadiazol-5-yl)bicyclo[2.2.2]octan-1-yl)methyl)(4′-(2-hydroxypropan-2-yl)-[1,1′-biphenyl]-3-yl)carbamate], for which the EC50 under setting [1] amounted to 50 nM.

As for `CC1(c2nc(C34CCC(CN(C(=O)C56CC(F)(C5)C6)c5cccc(-c6ccc(OC(F)F)cc6)c5)(CC3)CC4)no2)CC1` [Example 405, N-(4′-(difluoromethoxy)-[1,1′-biphenyl]-3-yl)-3-fluoro-N-((4-(5-(1-methylcyclopropyl)-1,2,4-oxadiazol-3-yl)bicyclo[2.2.2]octan-1-yl)methyl)bicyclo[1.1.1]pentane-1-carboxamide], the EC50 under setting [1] stood at 53 nM.

Molecule `O=C(N(CC12CCC(c3noc(C(F)(F)F)n3)(CC1)CC2)c1cccc(C2CC2)c1)C12CC(F)(C1)C2` [Example 572, N-(3-cyclopropylphenyl)-3-fluoro-N-((4-(5-(trifluoromethyl)-1,2,4-oxadiazol-3-yl)bicyclo[2.2.2]octan-1-yl)methyl)bicyclo[1.1.1]pentane-1-carboxamide] yielded an EC50 under setting [1] of 146 nM.

`Cn1nc(C23CCC(CN(C(=O)C45CC(F)(C4)C5)c4cccc(-c5ccc6[nH]c(=O)oc6c5)c4)(CC2)CC3)cc1C1CC1` [Example 411, N-((4-(5-cyclopropyl-1-methyl-1H-pyrazol-3-yl)bicyclo[2.2.2]octan-1-yl)methyl)-3-fluoro-N-(3-(2-oxo-2,3-dihydrobenzo[d]oxazol-6-yl)phenyl)bicyclo[1.1.1]pentane-1-carboxamide] returned an EC50 under setting [1] of 144 nM.

Take `O=C(NC12CCC(CN(C(=O)C3CC(O)(C(F)(F)F)C3)c3cccc(-c4ccc(OC(F)F)cc4)c3)(CC1)CC2)c1ccc(F)cc1` (stereo not drawn) [Example 637, N-(4-(((cis)-N-(4′-(difluoromethoxy)-[1,1′-biphenyl]-3-yl)-3-hydroxy-3-(trifluoromethyl)cyclobutane-1-carboxamido)methyl)bicyclo[2.2.2]octan-1-yl)-4-fluorobenzamide]: the midpoint of the response under setting [1], the EC50, lay at 384 nM.

`CC(C)Oc1ccc(-c2cccc(N(CC34CCC(c5noc(C(C)(F)F)n5)(CC3)CC4)C(=O)NC3CCOCC3)c2)cc1` [Example 652, 1-((4-(5-(1,1-difluoroethyl)-1,2,4-oxadiazol-3-yl)bicyclo[2.2.2]octan-1-yl)methyl)-1-(4′-isopropoxy-[1,1′-biphenyl]-3-yl)-3-(tetrahydro-2H-pyran-4-yl)urea] yielded an EC50 under setting [1] of 379 nM. This EC50 and that of the molecule before are within 1.5-fold of each other.

Regarding `CC(C)(C#N)Oc1ccc(-c2ccnc(N(CC34CCC(c5noc(C6(F)CC6)n5)(CC3)CC4)C(=O)OC(C)(C)C(F)(F)F)c2)cc1` [Example 625, 1,1,1-trifluoro-2-methylpropan-2-yl(4-(4-((2-cyanopropan-2-yl)oxy)phenyl)pyridin-2-yl) ((4-(5-(1-fluorocyclopropyl)-1,2,4-oxadiazol-3-yl)bicyclo[2.2.2]octan-1-yl)methyl) carbamate], it took 18 nM to reach a half-maximal effect under setting [1] (EC50).

`Cn1nc(C2CC2)cc1C12CCC(CN(C(=O)C34CC(F)(C3)C4)c3cc(-c4ccc(NS(C)(=O)=O)cc4)ccn3)(CC1)CC2` [Example 547, N-((4-(3-cyclopropyl-1-methyl-1H-pyrazol-5-yl)bicyclo[2.2.2]octan-1-yl)methyl)-3-fluoro-N-(4-(4-(methylsulfonamido)phenyl)pyridin-2-yl)bicyclo[1.1.1]pentane-1-carboxamide] registered an EC50 of 251 nM.

For `COc1cnc(-c2cccc(N(CC34CCC(c5noc(C(C)(C)C)n5)(CC3)CC4)C(=O)C34CC(F)(C3)C4)c2)nc1` [Example 450, N-((4-(5-(tert-butyl)-1,2,4-oxadiazol-3-yl)bicyclo[2.2.2]octan-1-yl)methyl)-3-fluoro-N-(3-(5-methoxypyrimidin-2-yl)phenyl)bicyclo[1.1.1]pentane-1-carboxamide], a half-maximal response under setting [1] (EC50) required 68 nM.

Regarding `COc1cc(-c2cccc(N(CC34CCC(c5nc(C6CC6)no5)(CC3)OC4)C(=O)C34CC(F)(C3)C4)c2)ccn1` [Example 339, N-((1-(3-cyclopropyl-1,2,4-oxadiazol-5-yl)-2-oxabicyclo[2.2.2]octan-4-yl)methyl)-3-fluoro-N-(3-(2-methoxypyridin-4-yl)phenyl)bicyclo[1.1.1]pentane-1-carboxamide], the EC50 under setting [1] worked out at 378 nM.

Molecule `CC(C)Oc1ccc(-c2cc(N(CC34CCC(c5noc(C(C)(C)F)n5)(CC3)CC4)C(=O)N[C@H]3CC[C@](C)(OC(F)F)CC3)ccc2F)cc1` [Example 653, 3-((trans)-4-(difluoromethoxy)-4-methylcyclohexyl)-1-(6-fluoro-4′-isopropoxy-[1,1′-biphenyl]-3-yl)-1-((4-(5-(2-fluoropropan-2-yl)-1,2,4-oxadiazol-3-yl)bicyclo[2.2.2]octan-1-yl)methyl)urea] had an EC50 under setting [1] of 145 nM.

For `Cc1nc2ccc(-c3cccc(N(CC45CCC(c6nc(C7CC7)no6)(CC4)OC5)C(=O)C45CC(F)(C4)C5)c3)cc2s1` [Example 564, N-((1-(3-cyclopropyl-1,2,4-oxadiazol-5-yl)-2-oxabicyclo[2.2.2]octan-4-yl)methyl)-3-fluoro-N-(3-(2-methylbenzo[d]thiazol-6-yl)phenyl)bicyclo[1.1.1]pentane-1-carboxamide], under setting [1], the EC50 came out at 207 nM.
